Laboratory results from US7825092B2, “Dendroaspis natriuretic peptide for treatment of cancer” (University of South Florida, priority 2006, dated 2010).

Columns and labels:
human glioblastoma cells = assay: DNA synthesis by bromodeoxyuridine (BrdU) incorporation; assay type: cell-based; settings: 1 μM, 24 hours
Experimental: To investigate whether these peptide hormones were inhibiting DNA synthesis, bromodeoxyuridine (BrdU) incorporation into the human glioblastoma cells was utilized as previously described from our laboratory. BrdU was from BD Bioscience, San Jose, Calif. After 24 hours in culture with 1 μM of LANP, vessel dilator, kaliuretic peptide, ANP, and DNP, respectively, or with no peptide hormone (i.e., control), BrdU in a final concentration of 10 μM in the cell culture medium was added for 45 minutes, which is the time in which the cells are in the logarithmic phase of cell proliferation.
(§1) The data obtained in this investigation are illustrated as mean±SEM. Maximum changes in cell death (evaluated six times with ten areas of microscope slide evaluated each time) and DNA synthesis within groups were determined by a paired one-tailed Student's t test evaluated with statistical module of Excel software. To be considered statistically significant, we required a probability value to be <0.05 (95% confidence limits).

[1] = system: human glioblastoma cells (ATCC number CRL-11543); assay: number of human glioblastoma cells counted after incubation with peptide hormones; assay type: cell-based; settings: for decrease in number of human glioblastoma cells compared to control: at 96 hours (three days after 24 hours exposure); for number of glioblastoma cancer cells remaining (per field): 24 hours, mean±SEM, control 130±3 cells
Experimental: A cell line (ATCC number CRL-11543) of human glioblastoma cells were purchased from American Type Culture Collection (ATCC, Manassas, Va.). This glioblastoma cell line was deposited by the Ludwig Institute for Cancer Research, University of California at San Diego, La Jolla, Calif. This glioblastoma cell line produces angiogensis inhibiting factor.
Propagation of these human glioblastoma cells was in Dulbecco's modified Eagle's medium with 4 mM L-glutamine adjusted to contain 1.5 g/L sodium bicarconate and 4.5 g/L glucose supplemented with 1 μg/ml tetracycline, […], and 10% fetal bovine serum (Atlanta Biologicals, Lawrenceville, Ga.) at a temperature of 37° C. in a […] environment as recommended by the ATCC. Cells were dispensed in new flasks with subculturing two to three times per week.
After the glioblastoma cells were subcultured for 24 hours they were then seeded to coverslips in 24-well plates (Nunclon™, Roskilde, Denmark) with 1 mL of the above media. There were 65,000 cells seeded to each coverslip. After 24 hours, the well plates were washed twice with phosphate-buffered saline to remove the fetal bovine serum. Removal of serum was carried out to completely remove all variables (EGF, etc.) present in serum in order that interpretation of any data obtained would be straightforward. After 24 hours of serum deprivation, media volume was reduced to 250 μL per well with, or without, the respective peptide hormones in dose-response curves with concentrations up to and including 100 μM (1% of this volume). Human glioblastoma cells were then incubated for various periods of time (24, 48, 72, and 96 hours). The number of glioblastoma carcinoma cells were then counted with a cell counter (Thomas Scientific, Swedesboro, N.J.) evaluating ten fields of the microscope slide at ×40 along the X-axis with an Olympus BH-2 microscope (Atlanta, Ga.). This evaluation was repeated on six separate occasions with the number of human glioblastoma cells reflecting 60 observations for each group, i.e., 60 observations for controls and 60 observations for each of the five groups with respective peptide hormones. The peptide hormones used in this investigation were from Phoenix Pharmaceuticals, Inc., Belmont, Calif. In the Results section, the number of cancer cells reported is the number of cells in each individual field. Ten fields were examined on each microscope slide. The results of the ten fields were pooled and the average of the ten fields is illustrated in the Results section.
as §1

[2] = human or animal subjects; cited from earlier work
[3] = system: human prostate cancer cells; settings: cited from earlier work
[4] = system: small-cell lung cancer cells; settings: 1 μM; cited from earlier work
[5] = system: human pancreatic adenocarcinoma cells; settings: 1 μM; cited from earlier work
human colon cancer cells = settings: within 24 hours; cited from earlier work
[6] = system: human pancreatic adenocarcinomas; settings: in one week, athymic mice; cited from earlier work
[7] = 1 μM, at 48 hours (24 hours exposure only)
[8] = 1 μM, at 72 hours (24 hours exposure only)
[9] = 10 μM, at 48 hours (24 hours exposure only)
[10] = 10 μM, at 72 hours (24 hours exposure only)
[11] = 100 μM, at 48 hours (24 hours exposure only)
[12] = 100 μM, at 72 hours (24 hours exposure only)

brain natriuretic peptide [BNP, reference compound]
decrease in DNA synthesis (human glioblastoma cells): 23%

long acting natriuretic peptide (NPMYNAVSNADLMDFKNLLDHLEEKMPLED; Long-acting natriuretic peptide; UniProt P01160 26-55, looked up, fragment) [LANP, cardiac hormone, first 30 amino acids of the 126 a.a. atrial natriuretic peptide prohormone]
decrease in number of human glioblastoma cells ([1]; 1 μM, at 24 hours): 31% | decrease in number of human glioblastoma cells [1, 7]: 31% | decrease in number of human glioblastoma cells [1, 8]: 31% | decrease in number of human glioblastoma cells compared to control ([1]; 1 μM): 24% | decrease in number of human glioblastoma cells ([1]; 10 μM, at 24 hours): 49% | decrease in number of human glioblastoma cells [1, 9]: 50% | decrease in number of human glioblastoma cells [1, 10]: 50% | decrease in number of human glioblastoma cells compared to control ([1]; 10 μM): 39% | number of glioblastoma cancer cells remaining (per field) ([1]; 100 μM): 43±2 cells | decrease in number of human glioblastoma cells ([1]; 100 μM, at 24 hours): 65% | decrease in number of human glioblastoma cells [1, 11]: 65% | decrease in number of human glioblastoma cells [1, 12]: 66% | decrease in number of human glioblastoma cells compared to control ([1]; 100 μM): 61% | decrease in DNA synthesis (human glioblastoma cells): 65% | side effect hypotension [2]: never

kaliuretic peptide
decrease in number of human glioblastoma cells ([1]; 1 μM, at 24 hours): 33% | decrease in number of human glioblastoma cells ([1]; 1 μM, at 24 hours, listed as Kaliuretic peptide): 32% | decrease in number of human glioblastoma cells [1, 7]: 32% | decrease in number of human glioblastoma cells [1, 8]: 32% | decrease in number of human glioblastoma cells compared to control ([1]; 1 μM): 25% | decrease in number of human glioblastoma cells ([1]; 10 μM, at 24 hours): 51% | decrease in number of human glioblastoma cells [1, 9]: 51% | decrease in number of human glioblastoma cells [1, 10]: 52% | decrease in number of human glioblastoma cells compared to control ([1]; 10 μM): 40% | number of glioblastoma cancer cells remaining (per field) ([1]; 100 μM): 43±2 cells | decrease in number of human glioblastoma cells ([1]; 100 μM, at 24 hours): 68% | decrease in number of human glioblastoma cells [1, 11]: 68% | decrease in number of human glioblastoma cells [1, 12]: 68% | decrease in number of human glioblastoma cells compared to control ([1]; 100 μM): 64% | decrease in DNA synthesis (human glioblastoma cells): 77% | decrease in prostate adenocarcinoma cells ([3]; 1 μM): 30% | decrease in small-cell lung cancer cells [4]: 30% | decrease in human pancreatic adenocarcinoma cells [5]: 37% | side effect hypotension [2]: never

vessel dilator
decrease in number of human glioblastoma cells ([1]; 1 μM, at 24 hours): 53% | decrease in number of human glioblastoma cells [1, 7]: 53% | decrease in number of human glioblastoma cells [1, 8]: 53% | decrease in number of human glioblastoma cells compared to control ([1]; 1 μM): 43% | decrease in number of human glioblastoma cells ([1]; 10 μM, at 24 hours): 60% | decrease in number of human glioblastoma cells [1, 9]: 60% | decrease in number of human glioblastoma cells [1, 10]: 60% | decrease in number of human glioblastoma cells compared to control ([1]; 10 μM): 55% | number of glioblastoma cancer cells remaining (per field) ([1]; 100 μM): 33±2 cells | decrease in number of human glioblastoma cells ([1]; 100 μM, at 24 hours): 75% | decrease in number of human glioblastoma cells [1, 11]: 76% | decrease in number of human glioblastoma cells [1, 12]: 76% | decrease in number of human glioblastoma cells compared to control ([1]; 100 μM): 68% | lower concentration causing the same decrease as the other peptide hormones ([1]; within 24 hours, FIG. 2): 10 fold | decrease in DNA synthesis (human glioblastoma cells): 87% | decrease in number of human prostate cancer cells, up to ([3]; within 24 hours): up to 97% | decrease in number of human colon cancer cells, up to (human colon cancer cells): up to 97% | decrease in tumor volume [6]: 49% | side effect hypotension [2]: never

CC[C@H](C)[C@@H]1NC(=O)[C@H](CCCNC(=N)N)NC(=O)[C@H](CC(=O)O)NC(=O)[C@H](CCSC)NC(=O)[C@H](CCCNC(=N)N)NC(=O)CNC(=O)CNC(=O)[C@H](Cc2ccccc2)NC(=O)[C@@H](NC(=O)[C@H](CO)NC(=O)[C@H](CO)NC(=O)[C@H](CCCNC(=N)N)NC(=O)[C@H](CCCNC(=N)N)NC(=O)[C@H](CC(C)C)NC(=O)[C@@H](N)CO)CSSC[C@@H](C(=O)N[C@@H](CC(N)=O)C(=O)N[C@@H](CO)C(=O)N[C@@H](Cc2ccccc2)C(=O)N[C@@H](CCCNC(=N)N)C(=O)N[C@@H](Cc2ccc(O)cc2)C(=O)O)NC(=O)CNC(=O)[C@H](CC(C)C)NC(=O)CNC(=O)[C@H](CO)NC(=O)[C@H](CCC(N)=O)NC(=O)[C@H](C)NC(=O)CNC1=O [ANP, atrial natriuretic peptide]
decrease in number of human glioblastoma cells compared to control ([1]; 1 μM): 24% | decrease in number of human glioblastoma cells compared to control ([1]; 10 μM): 43% | decrease in number of human glioblastoma cells compared to control ([1]; 100 μM): 60% | decrease in DNA synthesis (human glioblastoma cells): 79% | side effect hypotension [2]: observed

Dendroaspis natriuretic peptide [DNP]
concentration where first began to have an effect on glioblastoma cells [1]: 100 µM | decrease in number of human glioblastoma cells [1, 7]: 1% | decrease in number of human glioblastoma cells [1, 8]: 1% | decrease in number of human glioblastoma cells compared to control ([1]; 1 μM): 1% | decrease in number of human glioblastoma cells [1, 9]: 7% | decrease in number of human glioblastoma cells [1, 10]: 6% | decrease in number of human glioblastoma cells compared to control ([1]; 10 μM): 5% | decrease in number of human glioblastoma cells ([1]; 100 μM, at 24 hours): 17% | decrease in number of human glioblastoma cells [1, 11]: 19% | decrease in number of human glioblastoma cells [1, 12]: 19% | decrease in number of human glioblastoma cells compared to control ([1]; 100 μM): 8% | difference in concentration with significant anticancer effects, DNP versus human cardiac hormones ([1]; DNP higher, human cardiac hormones lower): 100 fold | killing / elimination of human glioblastoma cells, up to ([1]; within 24 hours, maximum effect, concentration not given): up to 19% | decrease in DNA synthesis (human glioblastoma cells): 23%
